Values joined by “and” are separate entries in the source; they are usually repeats but may differ in a detail not shown here. Equal entries are not always repeated.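 1) Cells in 96-well plates. 2) Compound, 48 h, 5 concentrations. 3) Linear interpolation between surrounding doses. 4) Unreached endpoint = highest concentration. GI50 marks 50% less growth. TGI marks complete inhibition of growth.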
How the values were obtained:
Test in all cases: DTP human tumour cell line panel, 48 h
[1] = tested on: ACHN renal
[2] = tested on: HOP-62 NSCLC
[3] = tested on: HOP-92 NSCLC
[4] = tested on: IGROV1 ovarian
[5] = tested on: NCI-H522 lung
[6] = tested on: NCI/ADR-RES ovarian
[7] = tested on: PC-3 prostate
[8] = tested on: RXF 393 renal
[9] = tested on: SF-268 CNS
[10] = tested on: UACC-62 melanoma

Compound	GI50 [1] [µM]	TGI [1]	GI50 [2] [µM]	TGI [2]	GI50 [3] [µM]	TGI [3]	GI50 [4] [µM]	TGI [4]	GI50 [5] [µM]	TGI [5]	GI50 [6] [µM]	TGI [6]	GI50 [7] [µM]	TGI [7]	GI50 [8] [µM]	TGI [8]	GI50 [9] [µM]	TGI [9]	GI50 [10] [µM]	TGI [10]
COC1(C(=O)N2Cc3nc(Cl)nc(N[C@H](C)c4cc(N)cc(C(F)(F)F)c4)c3C2)CCOCC1	18.5	71.4 µM	15.2	36 µM	0.356	21 µM	13.5	43.8 µM	9.23	55.2 µM	24.6	> 94.5 µM	21.3	> 91.8 µM	15.8	43.6 µM	13.7	49.1 µM	13.8	27.7 µM
Cc1nn(-c2ccc(F)cc2)c2ncnc(Nc3ccc(NC(=O)Nc4ccc(Cl)c(C(F)(F)F)c4)cc3)c12	1.75	5.62 µM	2.25	6.83 µM	1.73	4.59 µM	2.66	11.2 µM	1.74	4.42 µM	2.43	10.9 µM	1.03	3.98 µM	1.86	5.98 µM	3.55	21.8 µM	2.65	11.3 µM
Cc1cc2nc3c4cc(Cl)ccc4n(CCN(C)C)c3nc2cc1C	0.66	2.01 µM	1.53	4.57 µM	0.498	3.61 µM	1.35	3.86 µM	1.41	3.27 µM	1.07	5.04 µM	1.65	4.74 µM	1.59	3.32 µM	1.93	5.29 µM	1.65	3.3 µM
O=C(Nc1nc2ccccc2s1)OCC(F)(F)F	> 100	> 100 µM	> 100	> 100 µM	41.2	> 100 µM	> 100	> 100 µM	> 100	> 100 µM	> 100	> 100 µM	> 100	> 100 µM	> 100	> 100 µM	> 100	> 100 µM	> 100	> 100 µM
Clc1ccccc1C(c1ccccc1)(c1ccccc1)n1ccnc1	2.87	13.1 µM and 25.6 µM	2.99	12.5 µM and 26.6 µM	1.57	4.3 µM and 37.9 µM	3.35	18.7 µM and 22.9 µM	2.66	8.89 µM and 18.9 µM	2.88	13.3 µM and 28.2 µM	1.67	12.4 µM and 20.2 µM	2.89	9.28 µM and 42.1 µM	3.92	18.8 µM and 35.7 µM	1.44	6.68 µM and 27.9 µM
CN(C)CC(=O)N1CCC(c2ccc(NC(=O)c3ncc(C#N)[nH]3)c(C3=CCCCC3)c2)CC1	5.42	17.8 µM	7.07	19.4 µM	0.21	2.74 µM	7.48	25.7 µM	7.88	23.1 µM	14.8	33.8 µM	8.38	25.5 µM	3.25	14.2 µM	10.4	24.2 µM	3.3	11.7 µM

Reference: PubChem BioAssay (NCI)
